Each structure is given as a SMILES string.

One may read the melting point as the temperature, or range, at which the solid turns liquid. In the case of `CCOC(=O)C1CN(C(C)=O)CCC1=O` (stereo not drawn), the melting point lay in the range of 53 to 55 °C. `CCCCCCCOC(=O)CON=c1c2nccc3cccc(c32)n2cccc12` returned a melting point of 98 °C. Under `CCn1ccc(C(=O)c2cc(C(C)(C)C)c(O)c(C(C)(C)C)c2)c1` stands 73 to 75 °C; under `COC(=O)c1ccc(NC=O)nc1`, 218 to 220 °C. In the case of `CN(C)CCNc1ccc2c3c(nn2C)-c2ccncc2C(=O)c13`, the melting point was 212 to 216 °C. In the case of `COc1cccc(C(=O)N2CCN(CC3(C)Cc4c(C)c(N)c(C)c(C)c4O3)CC2)c1` (stereo not drawn) it was 95 to 98 °C; in that of `Cc1ccc(-n2nc3c(c2O)-c2ccccc2CC3)nc1`, 156 to 157 °C; in that of `NCCc1c(Br)[nH]c2ccc3c(=O)[nH]ccc3c12`, 252 °C. Under `CN(C)c1ccc2nc(N)c(C#N)c(NCc3ccccc3)c2c1` stands 265 °C; under `c1ccc(-c2cncc(CN3CCN(c4ccccc4)CC3)c2)cc1`, 83 to 85 °C; under `O=c1oc2cc(OCc3nnn[nH]3)cc(OCc3nnn[nH]3)c2c2c1C(c1ccccc1)CCC2` (stereo not drawn), 153 to 154 °C. Under `COc1ccc(CC(=O)NC(NC(Cc2ccccc2C)=NC#N)C(C)(C)C)cc1OC` (stereo not drawn) stands 153 to 155 °C; under `CCOC(=O)c1nc(-c2cccc(Cl)c2)c(-c2ccc(=O)n(C(C)C)n2)s1`, 134 to 136 °C; under `COC(=O)C1=C(c2ccccc2)NC(C)=C(C(=O)OC(C)C)C1c1cccc([N+](=O)[O-])c1` (stereo not drawn), 184 to 186 °C. Turning to `Cc1cc(Cl)ccc1NC(=O)n1nc(Oc2cccc(C(F)(F)F)c2)cc1C`, the melting point was in the range of 95 to 96 °C. The compound `O=C(O)[C@H]1C=C[C@@H](c2ccc([N+](=O)[O-])cc2)n2c(=O)n(CCCl)c(=O)n21` (relative stereo) returned a melting point of 192 to 194 °C. In turn, `CCCCOc1ccc(S(N)(=O)=O)cc1` gave a melting point of 99 to 101 °C. In the case of `O=C(O)c1ccc(-c2csc(-c3ccc(Cl)cc3)n2)cc1` it was 284 to 285 °C; in that of `COc1cc2c(cc1OC)S(=O)CCC(C(=O)N1CCN(C(=O)c3cc(OC)c(OC)c(OC)c3)CC1)=C2` (stereo not drawn), 138 °C. Under `COC(=O)C(C)N(C(=O)CCl)c1c(C)cccc1Cl` (stereo not drawn) stands 75 to 78 °C; under `CC(C)(C)c1ccccc1N1CCN(C(=O)C2CCC(=O)N2)CC1` (stereo not drawn), 290 °C; under `C[C@@H]1CNC[C@H](C)N1c1ncccn1`, 130 to 135 °C. Under `CN1CCN(c2cc(Cl)cc3c2c(=O)n(Cc2ccncc2)c(=O)n3Cc2ccccc2)CC1` stands 94 to 100 °C; under `Cc1[nH]c(=O)[nH]c1C(=O)C=Cc1ccccc1`, 299 °C. The compound `O=Cc1ccc2c(c1)OC(c1ccccc1)(c1ccccc1)O2` came in with a melting point of 157 to 159 °C. Under `O=C(Nc1ccc(NCc2ccccc2)cc1)C(=O)N1CCC(Cc2ccc(F)cc2)CC1` stands 145 to 148 °C. In the case of `CC(=O)n1ccc(N2CCCC2)c1C(=O)c1cccnc1Nc1cccc(Cl)c1` it was 170 to 173 °C; in that of `O=C(CC(Cc1cccc2ccccc12)C(=O)N[C@@H](Cc1c[nH]cn1)C(=O)N[C@H](CO)Cc1ccccc1)NCCc1ccccc1` (stereo partly drawn), 106 to 109 °C; in that of `CCCc1nc2cnc3cccnc3c2n1CC1(O)CCOC1` (stereo not drawn), 151 to 152 °C. In turn, `CN(C)C(=O)c1ccc([N+](=O)[O-])cc1S(N)(=O)=O` yielded a melting point of 159 to 160 °C.

The compound `COc1c(C(O)CNC(C)(C)Cc2c(C)c(C)cc(C)c2C)ccc(O)c1O` (stereo not drawn) gave a melting point of 165 to 168 °C. Under `Cn1c2ccc(Cl)cc2c2c(CC(=O)O)nn(-c3ccccc3)c(=O)c21` stands 206 to 208 °C; under `O=C(O)[C@H](Cc1ccccc1)NS(=O)(=O)c1ccc(Cl)cc1`, 132 to 134 °C.

Compound `CCCCn1c(COCC)nc2c(N)nc3ccc(Br)cc3c21` had a melting point of 182 to 183 °C.

`CCCCC(Cc1ccc(OCCN(CC)CC)cc1)(C(=O)O)S(=O)(=O)c1ccc(OC)cc1` (stereo not drawn) displayed a melting point of 67 °C. The compound `COc1ccc(S(=O)(=O)N2CCc3cccc(-c4ccccn4)c32)cc1` had a melting point of 195 to 197 °C. Under `CCCCCC(CC(=O)Nc1cc(C(=O)O)ccc1C(C)(C)C)c1ccc(C(=O)CC)cc1OC` (stereo not drawn) stands 197 to 199 °C; under `CCN(CC)CCNC(=O)c1ccc(-c2n[nH]c3c2Cc2ccccc2-3)cc1`, 172 to 174 °C; under `Nc1nc2cccnc2c2c1nc(CF)n2CC1(O)CCOC1` (stereo not drawn), 209 to 210 °C. The compound `O=C(O)[C@H]1Cc2ccccc2CN1S(=O)(=O)c1ccc(-c2ccccc2)cc1` returned a melting point of 195 to 202 °C. In the case of `CC(=O)Oc1cc(Oc2ccccc2)c(OC(C)=O)c2ccccc12` it was 137 to 138 °C.

`COc1c(-c2ccc3cc(NS(C)(=O)=O)ccc3c2)cc(-c2ccc[nH]c2=O)cc1C(C)(C)C` had a melting point of more than 300 °C. `N#Cc1cc(C(F)(F)F)nn1-c1ccc(NC(=O)c2ccncc2F)cc1` yielded a melting point of 161 to 162 °C.

Compound `CCOC(=O)c1cnc2c(OC)cccc2c1Nc1ccccc1` came in with a melting point of 120 to 121 °C. `O=C(O)COc1nc2ccccc2s1` showed a melting point of 168 to 170 °C. In the case of `O=C(O)Cc1cc(Br)cc(Br)c1OCCc1ccccc1`, the melting point lay in the range of 81 to 84 °C. In the case of `Nc1ccc(CCN2CCN(c3nsc4ccccc34)CC2)cc1` it was 154 °C; in that of `Cn1nc(-c2ccccc2)c2ccc(Cl)nc21`, 94 to 96 °C; in that of `CC(C)C[C@H](NC(=O)c1c(F)cccc1F)C(=O)N[C@@H](C(C)C)[C@@H](O)c1c(-c2ccccc2)c1=O`, 111 to 122 °C. In the case of `CC1(C)C(C=C(Cl)Cl)C1(C#N)C(=O)O` (stereo not drawn) it was 128 to 132 °C; in that of `CC(=O)CCOc1c(-c2ccc(S(C)(=O)=O)cc2)cnn(-c2ccc(F)cc2)c1=O`, 133 to 136 °C. `Cn1c(COc2ccc(CC3SC(=O)NC3=O)cc2)nc2ccc(Oc3cccc(NC(=O)Nc4ccccc4)c3)cc21` (stereo not drawn) returned a melting point of 165 to 167 °C. `CCOC(=O)c1cc2ccc(Cl)c(NS(=O)(=O)c3cccs3)c2[nH]1` showed a melting point of 191 to 192 °C.

In the case of `CCCn1nc(C(C)C)c(C(=O)OCC)c1Cc1ccc(-c2ccccc2S(=O)(=O)NC(=O)c2ccccc2)cc1`, the melting point is 159 to 160 °C. Under `CCOC(=O)C1=C(C(=O)OCC)C(c2ccccc2[N+](=O)[O-])C(C(=O)OCC)=C(C(=O)OCC)N1` stands 109 °C; under `CC1(C)SC(=S)N(Cc2cccs2)C(=O)C1NC(=O)c1ccc(Cl)cc1` (stereo not drawn), 176 to 177 °C; under `CC(C)(C)CC(C)(C)Nc1cc(Cl)ccc1[N+](=O)[O-]`, 108 °C. `Oc1cc(C(F)(F)F)nn1C1CCCCO1` (stereo not drawn) registered a melting point of 129 to 130 °C. Under `O=C(NCC12CC3CC(CC(C3)C1)C2)c1cccnc1Sc1cc(O)ccc1O` stands 108 to 110 °C.

Regarding `CNC(=C[N+](=O)[O-])NCCOc1cccc(CCCN(C)C)c1`, the melting point was 82 to 83.5 °C.

In the case of `COc1ccc2c(c1)sc1ncc(CO)n12`, the melting point was in the range of 202 to 204 °C.

`CCCCc1ccc(C=Nc2ccc(C#N)cc2)cc1` gave a melting point of 38.1 to 38.7 °C. In the case of `CC(C)(C)OC(=O)CN1CCN(c2ccnc(-c3nc(=O)c4ccccc4s3)c2)C1=O` it was 192 to 194 °C. Take `CS(=O)(=O)Cc1cnc2ccccc2c1Cl`: the melting point lay in the range of 202 to 204 °C.

`CC1(C)Oc2ccc(C#N)cc2[C@@H](N(C(N)=O)c2ccccc2)[C@@H]1O` (relative stereo) showed a melting point of 226 to 227 °C.

Regarding `CCN(CC)c1cc(-c2ccccc2)nc2nn(-c3ccccc3)cc12`, the melting point lay within 148 to 149 °C. In the case of `Clc1cccc(Cl)c1-c1nsnc1OCCBr` it was 60 to 61 °C; in that of `COc1ccccc1-c1cccc2c1OC(COS(=O)(=O)c1ccc(C)cc1)C2` (stereo not drawn), 100 to 103 °C.

For `O=C1SCc2c1cccc2[N+](=O)[O-]`, the melting point lay in the range of 128 to 133 °C. In the case of `CCOC(=O)C(C)(C)c1ccc(Br)c([N+](=O)[O-])c1` it was 42 to 45 °C. Under `COC(=O)C(SC)c1ccc(N2C(=O)c3ccccc3C2=O)cc1` (stereo not drawn) stands 168 to 169 °C; under `Oc1ccc(Oc2ccc(I)cn2)cc1`, 110 °C.

For `O=C1NOCCN1c1ccc(Cl)c(Cl)c1`, the melting point amounted to 152 °C. Under `O=C(Nc1cccc(F)n1)c1cc(-c2ccc(Cl)cc2)nc2ccccc12` stands 200 to 201 °C; under `CCCCCNc1cccc2c1CN(C1CCC(=O)NC1=O)C2=O` (stereo not drawn), 244 to 246 °C. Under `O=C1Nc2cccc(C(F)(F)F)c2C(=O)N2CCC[C@@H]12` stands 176 to 178 °C; under `O=C1CCNC(=O)C1C(=O)c1ccc(C(F)(F)F)cc1` (stereo not drawn), 197 to 200 °C; under `COc1cc(C(F)(F)F)oc(=O)c1`, 61 °C. Under `O=C(O)c1ccc(O)c(C(O)C(Cl)Cl)c1` (stereo not drawn) stands 214 to 215 °C. Turning to `CNC(=O)c1ccc(=O)n(CCNC(=O)c2cccnc2)c1`, the melting point fell in the range of 208 to 210 °C. The compound `CCCC(=O)c1cnc2c(OCCO)cccc2c1Nc1ccccc1C` registered a melting point of 125 to 127 °C.

Compound `Nc1c(F)c(N2CCC(n3cc(-c4ccccc4)nn3)C2)c(F)c2c1c(=O)c(C(=O)O)cn2C1CC1` (stereo not drawn) registered a melting point of 265 °C. Under `COc1ccc(NC(=O)NC2C(=O)Nc3ccccc3N(CCC(C)C)C2=O)cc1` (stereo not drawn) stands 150 to 152 °C; under `O=C1C(=Cc2ccccc2)CCCC1c1ccccc1` (stereo not drawn), 75 to 78 °C. In the case of `CC(C)(C)OC(=O)NC(Cc1ccccc1)C(O)CNCC(O)C(CCc1ccccc1)NC(=O)OCc1ccccc1` (stereo not drawn) it was 150 to 151 °C.

In the case of `CN1C(=O)OC[C@@H]1Cc1ccc([N+](=O)[O-])cc1`, the melting point lay in the range of 146 to 147 °C. Under `CC(=O)OCCn1cc(C(N)=O)c([N+](=O)[O-])n1` stands 139 to 141 °C; under `O=C(c1cccc(Cl)n1)c1ccc(Cl)cc1Cl`, 103 to 104 °C.

These data come from a melting point compilation (Tetko et al.; mined from patent text by program, amines drawn as free bases though some values may be those of a salt).
